Laboratory results: patent US20160338989A1, “SOLID PHARMACEUTICAL COMPOSITIONS CONTAINING BENZOFURAN DERIVATIVES” (SANOFI, priority 1997, published 2016)
Where a name gives a salt, the structure may show the parent alone.

Assays:
[1] = Behaviour in the presence of bile salts; format: physicochemical; details: bile salts such as sodium taurocholate
[2] = Bioavailability after intake of food, dogs; format: in vivo; details: in particular fats
Excerpt: (§1) This behaviour in intestinal medium probably makes it possible to explain in vivo the low bio-availability of dronedarone hydrochloride and the differences observed after administration with or without food, since it has been observed that the bio-availability of dronedarone hydrochloride in dogs and in man is increased after the intake of food, in particular fats, which can greatly modify the precipitation kinetics of this active principle and also help to place it in emulsion form.

[3] = Bioavailability after intake of food, man; format: in vivo; details: in particular fats
Excerpt: as §1

[4] = Test of maintenance in solution at pH=6.7, active principle alone; format: physicochemical; details: absence of surfactant; pH 6.7, 2 hours at 37° C.
Protocol: Solutions were prepared containing 2 mg/ml of dronedarone. hydrochloride in hydrogenphosphate (NaH2PO4 buffered medium at pH=4.5 for 2 hours at 37° C. in the presence or absence of x % of nonionic hydrophilic surfactant to be studied, calculated on a weight basis relative to the active principle in base form.
This solution was then diluted to 1/10th in a neutral phosphate medium (Na2HPO4+NaH2PO4), the pH of the final solution being 6.7.
After 2 hours at 37° C., the solution was filtered through an Acrodisc brand 5 μm filter and the active principle in solution was assayed by UV spectrometry.

[5] = physchem; details: aqueous medium
[6] = Dissolution at pH=4 and dilution to 1/10 with buffer of pH=7; format: physicochemical
Protocol: Thus, it is possible to dissolve 400 mg of dronedarone hydrochloride in 200 ml of aqueous medium buffered to pH=4 (aqueous 0.1 M NaH2PO4 solution).
On the other hand, in this medium diluted to 1/10 with an aqueous solution buffered to pH=7 (aqueous 0.1 M Na2HPO4 solution), dronedarone hydro-chloride precipitates (pH of the final medium: 6.7).

Compound: CCCCc1oc2ccc(NS(C)(=O)=O)cc2c1C(=O)c1ccc(OCCCN(CCCC)CCCC)cc1 [dronedarone hydrochloride, 2-n-butyl-3-[4-(3-di-n-butyl-aminopropoxy)benzoyl]-5-methylsul-phonamidobenzofuran]
- behaviour in the presence of bile salts [1]: precipitates
- bioavailability after the intake of food [2]: increased
- bioavailability after the intake of food [3]: increased
- % of dronedarone hydrochloride in solution [4]: 5%
- solubility ([5]; aqueous buffer): 1000 to 2000 µg/mL
- solubility ([5]; pH 7, aqueous buffer): 10 µg/mL
- behaviour on dilution to 1/10 with aqueous solution buffered to pH=7 ([6]; 0.1 M Na2HPO4, pH of the final medium 6.7): precipitates
- amount that can be dissolved in 200 ml of aqueous medium ([6]; buffered to pH=4 (aqueous 0.1 M NaH2PO4 solution)): 400 mg
